The numbers were not newly measured in patent US20220117942A1, “COMBINATION THERAPY FOR THE TREATMENT OF PROSTATE CANCER” (Zenith Epigenetics Ltd., priority 2018, published 2022), which cites them from elsewhere.

This series relates to 2nd line mCRPC patients. To be noted: enzalutamide alone, comparison value.

SMILES strings stand for the structures.

Consider `CNC(=O)c1ccc(N2C(=S)N(c3ccc(C#N)c(C(F)(F)F)c3)C(=O)C2(C)C)cc1F` [enzalutamide], for which the “expected rPFS” value was 24-28 weeks.
